In patent US8012949B2, “Bisphosphonate compounds and methods with enhanced potency for multiple targets including FPPS, GGPPS, and DPPS” (The Board of Trustees of the University of Illinois, priority 2004, dated 2011):
Where two headings read alike, the source gives them in different places.

Experiments:
[1] = target: T1, human DPPS (Homo sapiens, UniProt Q5T2R2); experiment: human DPPS enzyme inhibition; format: biochemical
T1 construct: made in house
T1 sequence (Q5T2R2 1-415): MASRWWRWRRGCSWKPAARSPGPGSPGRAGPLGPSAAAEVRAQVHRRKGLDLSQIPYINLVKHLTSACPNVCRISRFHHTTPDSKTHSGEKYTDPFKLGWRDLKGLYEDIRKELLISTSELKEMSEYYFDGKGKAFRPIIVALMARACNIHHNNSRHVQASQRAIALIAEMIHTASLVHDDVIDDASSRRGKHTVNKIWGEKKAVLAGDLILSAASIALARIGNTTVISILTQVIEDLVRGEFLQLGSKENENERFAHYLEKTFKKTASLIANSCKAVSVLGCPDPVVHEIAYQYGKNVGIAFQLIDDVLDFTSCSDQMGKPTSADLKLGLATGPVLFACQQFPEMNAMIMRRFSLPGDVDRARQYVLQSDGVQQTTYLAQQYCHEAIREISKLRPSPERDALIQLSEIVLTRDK
T1 sequence (Q86YH6 1-399 partner): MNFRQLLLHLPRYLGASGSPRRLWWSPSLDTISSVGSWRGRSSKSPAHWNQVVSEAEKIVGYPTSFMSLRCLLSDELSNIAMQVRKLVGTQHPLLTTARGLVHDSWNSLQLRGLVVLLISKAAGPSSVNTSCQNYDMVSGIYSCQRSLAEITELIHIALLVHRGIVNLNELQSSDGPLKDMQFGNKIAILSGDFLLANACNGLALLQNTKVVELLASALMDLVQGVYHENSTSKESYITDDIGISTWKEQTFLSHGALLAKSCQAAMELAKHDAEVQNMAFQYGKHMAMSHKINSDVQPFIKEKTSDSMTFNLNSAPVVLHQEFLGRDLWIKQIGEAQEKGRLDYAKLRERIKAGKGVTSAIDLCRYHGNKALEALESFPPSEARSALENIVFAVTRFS
Text: (§1) To test our polypharmaceutical hypothesis, we expressed three enzymes: human FPPS, GGPPS and DPPS, and tested each for their inhibition by a series of bisphosphonates.

[2] = system: SF-268 (central nervous system glioblastoma); experiment: SF-268 cell growth inhibition (MTT); format: cell-based, human; conditions: Homo sapiens, SF-268
[3] = target: T2, human recombinant geranylgeranyl diphosphate synthase (hGGPPS) (Homo sapiens, UniProt O95749); experiment: Human recombinant GGPPS inhibition (radiometric assay); format: biochemical
T2 construct: made in house
T2 sequence (O95749 1-300): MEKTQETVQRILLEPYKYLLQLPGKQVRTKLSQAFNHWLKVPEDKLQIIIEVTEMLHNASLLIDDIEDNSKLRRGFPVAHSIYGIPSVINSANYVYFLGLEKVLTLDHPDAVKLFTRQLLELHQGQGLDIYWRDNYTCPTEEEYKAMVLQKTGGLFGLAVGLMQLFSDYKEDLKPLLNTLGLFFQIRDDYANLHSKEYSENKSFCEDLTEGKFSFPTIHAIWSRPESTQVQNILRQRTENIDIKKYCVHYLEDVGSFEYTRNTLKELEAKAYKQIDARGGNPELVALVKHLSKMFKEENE
Protocol: as §1
Human recombinant GGPPS inhibition. The purification of human recombinant geranylgeranyl diphosphate synthase (hGGPPS) followed the protocol reported previously^2. GGPPS inhibition by bisphosphonates was determined using the radiometric assay reported previously^2 with slight modification. […] IPP and incubated at 37° C. for 20 min. The reaction was terminated by the addition of 75 μL of HCl/MeOH. Following a second 20 min incubation at 37° C. to effectively hydrolyze the allylic pyrophosphates, the reaction mixtures were neutralized by the addition of 75 μL of 6 N NaOH and extracted with 500 μL of hexane. 200 μL of the organic phase was transferred to a scintillation vial for counting. The IC50 values were obtained by fitting the data to the dose-response curve in Origin 6.1 (OriginLab Corp., Northampton, Mass., www.OriginLab.com).

[4] = system: Vγ2Vδ2 T cells; experiment: γδ T cell activation (TNF-α release and proliferation); format: cell-based, human
Method in brief: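 Vγ2Vδ2 T cell clones (CD4+ JN.24, CD4+ HF.2, CD8αα+ 12G12, CD4−8− HD.108) stimulated with phosphoantigens plus 0.05% glutaraldehyde-fixed APCs: CP.EBV B cells for CD4+ clones, Va-2 fibroblasts for others. TNF-α release and proliferation measured; curve minima from global fitting per experiment, maxima fitted per compound unconstrained.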

[5] = system: cancer cell growth (average); experiment: Inhibition of cancer cell growth (average); format: cell-based; conditions: Homo sapiens
Protocol: Compound 754 was synthesized and tested for activity.
Cell Growth Inhibition Assays. The human tumor cell lines MCF-7 (breast adenocarcinoma), NCI-H460 (lung large cell) and SF-268 (central nervous system glioblastoma) were obtained from the National Cancer Institute. All lines were cultured in RPMI-1640 medium supplemented with 10% fetal bovine serum and 2 mM L-glutamine at 37° C. in a 5% CO2 atmosphere with 100% humidity. A broth microdilution method was used to determine IC50 values for growth inhibition by each bisphosphonate. […] NBPs were typically initially dissolved in H2O (0.01 M) while NNBPs were typically dissolved in DMSO (0.01 M). Plates were then incubated for 4 days at 37° C. in a 5% CO2 atmosphere at 100% humidity after which an MTT ((3-(4,5-dimethylthiazole-2-yl)-2,5-diphenyltetrazolium bromide) cell proliferation assay (ATCC, Manassas, Va.) was used to obtain dose-response curves. The DMSO carrier had no effect on cell proliferation.

[6] = system: NCI-H460 (lung large cell); experiment: NCI-H460 cell growth inhibition (MTT); format: cell-based, human; conditions: Homo sapiens, NCI-H460

effect on DPPS [1]: essentially no effect | Ki ([1]; Table 1, experimental, read-out: DPPS_pKi (converted)): 200 nM | IC50 ([2]; Table 1, experimental, read-out: SF-268 pIC50 (converted)): 25100 nM | IC50 ([2]; read-out: IC50, inhibition of human CNS cancer SF268): 524 nM | effect on GGPPS [3]: good GGPPS inhibitor | Ki ([3]; Table 1, experimental, read-out: GGPPS pKi (converted)): 15.8 nM | IC50 [5]: 500 nM | IC50 ([6]; Table 1, experimental, read-out: NCI-H460 pIC50 (converted)): 20000 nM | IC50 ([6]; read-out: IC50, inhibition of human lung cancer NCIH460): 672 nM
SMILES: CCCCCCCCCCOc1cccc(CC(O)(P(=O)(O)O)P(=O)(O)O)c1 [BPH-754]
γδ T cell activation [4]: no effect
